The values below come from patent US9206156B2, “Substituted indole derivatives” (GRÜNENTHAL GMBH, priority 2008, dated 2015).

The target in one experiment is T1, human μ-opiate receptor (Homo sapiens, UniProt P35372).
T1 construct: purchased NEN, Zaventem, Belgium RB-HOM; host or cells: CHO-K1 cells (membrane preparation)
In words: μ-opiate receptor binding assay with [3H] naloxone (WGA-SPA beads). The settings on record: 1 μmol/l test substance, 1 nmol/l [3H] naloxone, CHO-K1 cell membranes expressing human μ-opiate receptor. The procedure:
The receptor affinity to the human μ-opiate receptor was determined in a homogeneous batch in microtitre plates. To this end, dilution series of the substituted indole derivative to be tested were incubated for 90 minutes at room temperature with a receptor membrane preparation (15-40 μg protein per 250 μl incubation batch) of CHO-K1 cells, which express the human μ-opiate receptor (RB—HOM receptor membrane preparation from NEN, Zaventem, Belgium), in the presence of 1 nmol/l of the radioactive ligand [^3H] naloxone (NET719, NEN, Zaventem, Belgium) and 1 mg of WGA-SPA beads (wheat germ agglutinin SPA beads from Amersham/Pharmacia, Freiburg, Germany) in a total volume of 250 μl. 50 mmol/l tris-HCl supplemented with 0.05 wt. % sodium azide and 0.06 wt. % bovine serum albumin were used as the incubation buffer. In order to determine the non-specific binding, 25 μmol/l of naloxone were also added. At the end of the ninety-minute incubation period the microtitre plates were centrifuged for 20 minutes at 1000 g and the radioactivity was measured in a β counter (Microbeta-Trilux, PerkinElmer Wallac, Freiburg, Germany). The percentage displacement of the radioactive ligand from its binding to the human μ-opiate receptor was determined at a test substance concentration of 1 μmol/l and stated as the percentage inhibition (% inhibition) of the specific binding. In some cases the percentage displacement due to differing concentrations of the compounds having the general formula I to be tested was used to calculate the IC50 inhibition concentrations which bring about a 50-percent displacement of the radioactive ligand. Ki values for the test substances were obtained by extrapolation using the Cheng-Prusoff equation.

The next experiment deals with T2, ORL1 receptor (Homo sapiens, UniProt P41146).
T2 construct: expressed in transfected cells; host or cells: CHO (recombinant CHO-ORL1 cells), membranes
T2 sequence (P41146 whole entry): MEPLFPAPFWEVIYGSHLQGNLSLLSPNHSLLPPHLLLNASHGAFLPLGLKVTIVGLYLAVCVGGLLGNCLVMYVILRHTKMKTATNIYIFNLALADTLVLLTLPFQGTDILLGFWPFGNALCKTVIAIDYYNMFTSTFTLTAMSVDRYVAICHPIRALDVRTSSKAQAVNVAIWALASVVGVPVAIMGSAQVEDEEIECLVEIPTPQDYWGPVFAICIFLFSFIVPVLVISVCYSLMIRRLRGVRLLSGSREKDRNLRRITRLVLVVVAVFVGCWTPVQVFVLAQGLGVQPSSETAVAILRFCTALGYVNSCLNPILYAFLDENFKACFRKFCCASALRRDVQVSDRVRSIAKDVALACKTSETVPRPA
In words: ORL1 receptor binding assay with 3H-nociceptin/orphanin FQ (WGA-SPA beads). The settings on record: c=1 μM test substance; 0.5 nM 3H-nociceptin/orphanin FQ; membranes of recombinant CHO-ORL1 cells. The procedure:
Measurement of ORL1 Binding
The cyclohexane derivatives having the general formula I were investigated in a receptor binding assay with ^3H-nociceptin/orphanin FQ with membranes of recombinant CHO—ORL1 cells. This test system was conducted in accordance with the method described by Ardati et al. (Mol. Pharmacol., 51, 1997, p. 816-824). The concentration of ^3H-nociceptin/orphanin FQ in these tests was 0.5 nM. The binding assays were carried out with 20 μg amounts of membrane protein per 200 μl batch in 50 mM Hepes, pH 7.4, 10 mM MgCl2 and 1 mM EDTA. The binding to the ORL1 receptor was determined using 1 mg amounts of WGA-SPA beads (Amersham-Pharmacia, Freiburg, Germany), by incubation of the batch for one hour at room temperature and subsequent measurement in a Trilux scintillation counter (Wallac, Finland). The affinity is given in Table 1 as the nanomolar Ki value or in % inhibition at c=1 μM.

T1 sequence (P35372 whole entry): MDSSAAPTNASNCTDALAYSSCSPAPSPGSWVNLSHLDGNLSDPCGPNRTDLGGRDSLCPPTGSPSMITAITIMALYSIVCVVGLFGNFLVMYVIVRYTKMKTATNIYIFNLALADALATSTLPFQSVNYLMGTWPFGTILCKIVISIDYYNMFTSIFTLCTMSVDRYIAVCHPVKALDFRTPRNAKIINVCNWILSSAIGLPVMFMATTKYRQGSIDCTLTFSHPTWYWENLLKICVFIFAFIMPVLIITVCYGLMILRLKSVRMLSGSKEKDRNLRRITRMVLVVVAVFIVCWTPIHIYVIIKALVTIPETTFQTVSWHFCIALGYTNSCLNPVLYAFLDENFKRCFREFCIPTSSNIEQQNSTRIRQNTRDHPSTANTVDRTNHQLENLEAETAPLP

On to `CN(CCN1CCC(c2ccccc2)(N(C)C)CC1)C(=O)c1ccc2cc[nH]c2c1` [Example 1, N-(2-(4-(Dimethylamino)-4-phenylpiperidin-1-yl)ethyl)-N-methyl-1H-indol-6-amide], for which, at human μ-opiate receptor (1 µM), the “% Inhibition (μ) at 1 μM” value was found to be 94%. In addition, at ORL1 receptor, the “% Inhibition (ORL1) at 1 μM” value is 80%. With `CC(C)C(CC(=O)NCCN1CCC(c2cccs2)(N(C)C)CC1)c1c[nH]c2ccccc12` (stereo not drawn) [Example 2, N-(2-(4-(Dimethylamino)-4-(thiophen-2-yl)piperidin-1-yl)ethyl)-3-(1H-indol-3-yl)-4-methylpentanamide], the inhibition at 1 µM on human μ-opiate receptor worked out at 99%; at ORL1 receptor, 96%.

For `CN(CCN1CCC(c2ccccc2)(N(C)C)CC1)C(=O)c1cc2cc(F)ccc2[nH]1` [Example 3, N-(2-(4-(Dimethylamino)-4-phenylpiperidin-1-yl)ethyl)-5-fluoro-N-methyl-1H-indol-2-amide], the “% Inhibition (μ) at 1 μM” value on human μ-opiate receptor (1 µM) is 92%. For the same compound, the “% Inhibition (ORL1) at 1 μM” value on ORL1 receptor came out at 90%. On to `CN(CCN1CCC(c2ccccc2)(N(C)C)CC1)C(=O)CCc1c[nH]c2ccccc12` [Example 4, N-(2-(4-(Dimethylamino)-4-phenylpiperidin-1-yl)ethyl)-3-(1H-indol-3-yl)-N-methylpropanamide], for which the figures for the inhibition at 1 µM on human μ-opiate receptor and on ORL1 receptor were 93% and 86%, respectively.

In the case of `CN(C)C1(c2cccs2)CCN(CCNC(=O)CCc2c[nH]c3ccccc23)CC1` [Example 5, N-(2-(4-(Dimethylamino)-4-(thiophen-2-yl)piperidin-1-yl)ethyl)-3-(1H-indol-3-yl)propanamide], the results for the inhibition at 1 µM at human μ-opiate receptor and at ORL1 receptor were 98% and 89%, respectively. Take `CC(C)C(CC(=O)NCCN1CCC(c2cccs2)(N(C)C)CC1)c1c[nH]c2ccccc12` (stereo not drawn) [Example 6, N-(2-(4-(Dimethylamino)-4-(thiophen-2-yl)piperidin-1-yl)ethyl)-3-(1H-indol-3-yl)-4-methylpentanamide]: the “% Inhibition (μ) at 1 μM” value on human μ-opiate receptor (1 µM) was determined as 102%. Further, the “% Inhibition (ORL1) at 1 μM” value on ORL1 receptor was determined as 98%.

On to `CN(C)C1(c2cccs2)CCN(CCNC(=O)C2CCCc3c2[nH]c2ccc(Cl)cc32)CC1` (stereo not drawn) [Example 7, 6-Chloro-N-(2-(4-(dimethylamino)-4-(thiophen-2-yl)piperidin-1-yl)ethyl)-2,3,4,9-tetrahydro-1H-carbazole-1-carboxamide], for which the results for the inhibition at 1 µM at human μ-opiate receptor and at ORL1 receptor were 95% and 62%, respectively. The corresponding values for `CN(C)C1(c2cccs2)CCN(CCNC(=O)Cc2c[nH]c3cc(F)ccc23)CC1` [Example 8, N-(2-(4-(Dimethylamino)-4-(thiophen-2-yl)piperidin-1-yl)ethyl)-2-(6-fluoro-1H-indol-3-yl)acetamide] are 99% and 96%. For `CN(C)C1(c2cccs2)CCN(CCNC(=O)c2ccc3ccn(C)c3c2)CC1` [Example 9, N-(2-(4-(Dimethylamino)-4-(thiophen-2-yl)piperidin-1-yl)ethyl)-1-methyl-1H-indole-6-carboxamide], the inhibition at 1 µM was 101% at human μ-opiate receptor and 77% on ORL1 receptor. For `CN(C)C1(c2cccs2)CCN(CCNC(=O)c2cccc3c2ccn3C)CC1` [Example 10, N-(2-(4-(Dimethylamino)-4-(thiophen-2-yl)piperidin-1-yl)ethyl)-1-methyl-1H-indole-4-carboxamide] the same measures were 99% and 56%. Regarding `CC(C)C(CC(=O)N(C)CCN1CCC(c2ccccc2)(N2CCCC2)CC1)c1c[nH]c2ccccc12` (stereo not drawn) [Example 32, 3-(1H-Indol-3-yl)-N,4-dimethyl-N-(2-(4-phenyl-4-(pyrrolidin-1-yl)piperidin-1-yl)ethyl)pentanamide], the inhibition at 1 µM at human μ-opiate receptor is 61%. With `CCCCC1(N(C)C)CCN(CCN(C)C(=O)c2ccc3ccn(C)c3c2)CC1` [Example 38, N-(2-(4-Butyl-4-(dimethylamino)piperidin-1-yl)ethyl)-N,1-dimethyl-1H-indole-6-carboxamide], the inhibition at 1 µM on human μ-opiate receptor was 68%. The same measure, in the same setting: the same measure for `CN(CCN1CCC(c2ccccc2)(N2CCCC2)CC1)C(=O)c1cccc2c1ccn2C` [Example 40, N,1-Dimethyl-N-(2-(4-phenyl-4-(pyrrolidin-1-yl)piperidin-1-yl)ethyl)-1H-indole-4-carboxamide]: 40%; for `CN(CCN1CCC(c2ccccc2)(N2CCCC2)CC1)C(=O)c1c[nH]c2ccccc12` [Example 46, N-Methyl-N-(2-(4-phenyl-4-(pyrrolidin-1-yl)piperidin-1-yl)ethyl)-1H-indole-3-carboxamide]: 20%; for `CCCCC1(N(C)C)CCN(CCN(C)C(=O)c2c[nH]c3ccccc23)CC1` [Example 47, N-(2-(4-Butyl-4-(dimethylamino)piperidin-1-yl)ethyl)-N-methyl-1H-indole-3-carboxamide]: 61%.

With `CN(CCN1CCC(c2ccccc2)(N2CCCC2)CC1)C(=O)CCc1cn(C)c2ccccc12` [Example 48, N-Methyl-3-(1-methyl-1H-indol-3-yl)-N-(2-(4-phenyl-4-(pyrrolidin-1-yl)piperidin-1-yl)ethyl)propanamide], the inhibition at 1 µM at human μ-opiate receptor turned out to be 14%.

Regarding `CN(CCN1CCC(c2ccccc2)(N2CCCC2)CC1)C(=O)c1ccc2cc[nH]c2c1` [Example 54, N-Methyl-N-(2-(4-phenyl-4-(pyrrolidin-1-yl)piperidin-1-yl)ethyl)-1H-indole-6-carboxamide], the inhibition at 1 µM on human μ-opiate receptor came out at 15%. Same read-out and setting: the same measure for `CCCCC1(N(C)C)CCN(CCN(C)C(=O)c2ccc3cc[nH]c3c2)CC1` [Example 55, N-(2-(4-Butyl-4-(dimethylamino)piperidin-1-yl)ethyl)-N-methyl-1H-indole-6-carboxamide]: 66%. Same read-out and setting: the same measure for `CC(CC(=O)N(C)CCN1CCC(c2ccccc2)(N2CCCC2)CC1)c1c[nH]c2ccccc12` (stereo not drawn) [Example 57, 3-(1H-Indol-3-yl)-N-methyl-N-(2-(4-phenyl-4-(pyrrolidin-1-yl)piperidin-1-yl)ethyl)butanamide]: 45%. The same measure, in the same setting: the same measure for `COc1ccc2[nH]c(C(=O)N(C)CCN3CCC(c4ccccc4)(N4CCCC4)CC3)cc2c1` [Example 64, 5-Methoxy-N-methyl-N-(2-(4-phenyl-4-(pyrrolidin-1-yl)piperidin-1-yl)ethyl)-1H-indole-2-carboxamide]: 18%; for `CCCCC1(N(C)C)CCN(CCN(C)C(=O)c2cc3cc(OC)ccc3[nH]2)CC1` [Example 65, N-(2-(4-Butyl-4-(dimethylamino)piperidin-1-yl)ethyl)-5-methoxy-N-methyl-1H-indole-2-carboxamide]: 42%.

In the case of `CN(CCN1CCC(c2ccccc2)(N2CCCC2)CC1)Cc1c[nH]c2ccccc12` [Example 137, N-((1H-indol-3-yl)methyl)-N-methyl-2-(4-phenyl-4-(pyrrolidin-1-yl)piperidin-1-yl)ethanamine], the inhibition at 1 µM on human μ-opiate receptor turned out to be 82%.

Turning to `CCCCC1(N(C)C)CCN(CCN(C)Cc2ccc3[nH]ccc3c2)CC1` [Example 141, 1-(2-(((1H-indol-5-yl)methyl)(methyl)amino)ethyl)-4-butyl-N,N-dimethylpiperidin-4-amine], the inhibition at 1 µM at human μ-opiate receptor was 82%. Still for that read-out and setting: the same measure for `CN(CCN1CCC(c2ccccc2)(N2CCCC2)CC1)Cc1c[nH]c2ccc(Br)cc12` [Example 153, N-((5-bromo-1H-indol-3-yl)methyl)-N-methyl-2-(4-phenyl-4-(pyrrolidin-1-yl)piperidin-1-yl)ethanamine]: 93%.

Take `CN(CCN1CCC(c2ccccc2)(N2CCCC2)CC1)Cc1cccc2[nH]ccc12` [Example 159, N-((1H-indol-4-yl)methyl)-N-methyl-2-(4-phenyl-4-(pyrrolidin-1-yl)piperidin-1-yl)ethanamine]: the inhibition at 1 µM at human μ-opiate receptor was 64%. Take `CCCCC1(N(C)C)CCN(CCN(C)Cc2cccc3[nH]ccc23)CC1` [Example 160, 1-(2-(((1H-indol-4-yl)methyl)(methy)amino)ethyl)-4-butyl-N,N-dimethylpiperidin-4-amine]: on human μ-opiate receptor, the “% Inhibition (μ) at 1 μM” value stood at 87%.

Broadly, the inhibition is the drop in the measured response relative to a control, in per cent.
